In US7041698B2, “Hepatitis C virus inhibitors” (Bristol-Myers Squibb Company, priority 2002, dated 2006):
Like-named read-outs stand apart in the source and are kept apart here.

What was measured:
[1] = target: T1, HCV NS3/4A protease complex (UniProt P27958, C1454S/C1711G, species not given); test: Recombinant HCV NS3/4A protease complex FRET peptide assay (strain not stated); assay type: biochemical
T1 construct: fused on or other part: Three-lysine solubilising tail at the C-terminus of NS4A
Description: Recombinant HCV NS3/4A Protease Complex FRET Peptide Assay
The purpose of this in vitro assay was to measure the inhibition of HCV NS3 protease complexes, derived from the BMS, H77C or J416S strains, as described below, by compounds of the present invention. This assay provides an indication of how effective compounds of the present invention would be in inhibiting HCV proteolytic activity.
Serum from an HCV-infected patient was obtained from Dr. T. Wright, San Francisco Hospital. An engineered full-length cDNA (compliment deoxyribonucleic acid) template of the HCV genome (BMS strain) was constructed from DNA fragments obtained by reverse transcription-PCR (RT-PCR) of serum RNA (ribonucleic acid) and using primers selected on the basis of homology between other genotype 1a strains. From the determination of the entire genome sequence, a genotype 1a was assigned to the HCV isolate according to the classification of Simmonds et al. (See P Simmonds, K A Rose, S Graham, S W Chan, F McOmish, B C Dow, E A Follett, P L Yap and H Marsden, J. Clin. Microbiol., 31(6), 1493–1503 (1993)). […] The infectious clones, H77C (1a genotype) and J4L6S (1b genotype) were obtained from R. Purcell (NIH) and the sequences are published in Genbank (AAB67036, see Yanagi, M., Purcell, R. H., Emerson, S. U. and Bukh, J. Proc. Natl. Acad. Sci. U.S.A. 94(16),8738–8743 (1997); AF054247, see Yanagi, M., St Claire, M., Shapiro, M., Emerson, S. U., Purcell, R. H. and Bukh, J, Virology 244 (1), 161–172. (1998)).
The BMS, H77C and J4L6S strains were used for production of recombinant NS3/4A protease complexes. DNA encoding the recombinant HCV NS3/4A protease complex (amino acids 1027 to 1711) for these strains were manipulated as described by P. Gallinari et al. (see Gallinari P, Paolini C, Brennan D, Nardi C, Steinkuhler C, De Francesco R. Biochemistry. 38(17):5620–32, (1999)). Briefly, a three-lysine solubilizing tail was added at the 3′-end of the NS4A coding region. The cysteine in the P1 position of the NS4A-NS4B cleavage site (amino acid 1711) was changed to a glycine to avoid the proteolytic cleavage of the lysine tag. Furthermore, a cysteine to serine mutation was introduced by PCR at amino acid position 1454 to prevent the autolytic cleavage in the NS3 helicase domain. The variant DNA fragment was cloned in the pET21b bacterial expression vector (Novagen) and the NS3/4A complex was expressed in Escherichia. coli strain BL21 (DE3) (Invitrogen) following the protocol described by P. Gallinari et al. (see Gallinari P, Brennan D, Nardi C, Brunetti M, Tomei L, Steinkuhler C, De Francesco R., J. Virol. 72(8):6758–69 (1998)) with modifications. Briefly, NS3/4A expression was induced with 0.5 mM Isopropyl β-D-1-thiogalactopyranoside (IPTG) for 22 hr at 20° C. A typical fermentation (10L) yielded approximately 80 g of wet cell paste. The cells were resuspended in lysis buffer (10 mL/g) consisting of 25 mM N-(2-Hydroxyethyl)Piperazine-N′-(2-Ethane Sulfonic acid) (HEPES), pH7.5, 20% glycerol, 500 mM Sodium Chloride (NaCl), 0.5% Triton-X100, 1 ug/ml lysozyme, 5 mM Magnesium Chloride (MgCl2), lug/ml Dnasel, 5 mM β-Mercaptoethanol (βME), Protease inhibitor—Ethylenediamine Tetraacetic acid (EDTA) free (Roche), homogenized and incubated for 20 mins at 4° C. The homogenate was sonicated and clarified by ultra-centrifugation at 235000 g for 1 hr at 4° C. Imidazole was added to the supernatant to a final concentration of 15 mM and the pH adjusted to 8.0. The crude protein extract was loaded on a Nickel-Nitrilotriacetic acid (Ni-NTA) column pre-equilibrated with buffer B (25 mM HEPES, pH 8.0, 20% glycerol, 500 mM NaCl, 0.5% Triton-X100, 15 mM imidazole, 5 mM βME). The sample was loaded at a flow rate of 1 mL/min. The column was washed with 15 column volumes of buffer C (same as buffer B except with 0.2% Triton-X100). The protein was eluted with 5 column volumes of buffer D (same as buffer C except with 200 mM Imidazole). […]

[2] = system: HCV replicon in Huh7 cells; test: HCV replicon cell-based assay; parameters: species or system HCV strain 1B; conditions: HCV replicon, 4 days, read-out: EC50 range
Description: HCV Replicon Cell-based Assay
An HCV replicon whole cell system was established as described by Lohmann V, Komer F, Koch J, Herian U, Theilmann L, Bartenschlager R., Science 285(5424):110–3 (1999). This system enabled us to evaluate the effects of our HCV Protease compounds on HCV RNA replication. Briefly, using the HCV strain 1B sequence described in the Lohmann paper (Assession number:AJ238799), an HCV cDNA was generated encoding the 5′ internal ribosome entry site (IRES), the neomycin resistance gene, the EMCV (encephalomyocarditis viurs)-IRES and the HCV nonstructural proteins, NS3-NS5B, and 3′ non-translated region (NTR). In vitro transcripts of the cDNA were transfected into the human hepatoma cell line, Huh7. […] Resulting cell lines were characterized for positive and negative strand RNA production and protein production over time.
Huh7 cells, constitutively expressing the HCV replicon, were grown in Dulbecco's Modified Eagle Media (DMEM) containing 10% Fetal calf serum (FCS) and 1 mg/ml G418 (Gibco-BRL). Cells were seeded the night before (1.5×10^4 cells/well) in 96-well tissue-culture sterile plates. Compound and no compound controls were prepared in DMEM containing 4% FCS, 1:100 Penicillin/Streptomysin, 1:100 L-glutamine and 5% DMSO in the dilution plate (0.5% DMSO final concentration in the assay). Compound/DMSO mixes were added to the cells and incubated for 4 days at 37° C. After 4 days, plates were rinsed thoroughly with Phosphate-Buffered Saline (PBS) (3 times 150 μl). The cells were lysed with 25 μl of a lysis assay reagent containing the FRET peptide (RET S1, as described for the in vitro enzyme assay). The lysis assay reagent was made from 5× cell Luciferase cell culture lysis reagent (Promega #E153A) diluted to 1× with distilled water, NaCl added to 150 mM final, the FRET peptide diluted to 10 μM final from a 2 mM stock in 100% DMSO. The plate was then placed into the Cytofluor 4000 instrument which had been set to 340 nm excitation/490 emission, automatic mode for 21 cycles and the plate read in a kinetic mode. EC50 determinations were carried out as described for the IC50 determinations.
As a secondary assay, EC50 determinations from the replicon FRET assay were confirmed in a quantitative RNA assay. Cells were lyzed using the Rneasy kit (Qiagen). Purified total RNA was normalized using RiboGreen (Jones L J, Yue S T, Cheung C Y, Singer V L, Anal. Chem., 265(2):368–74 (1998)) and relative quantitation of HCV RNA expression assessed using the Taqman procedure (Kolykhalov A A, Mihalik K, Feinstone S M, Rice C M, Journal of Virology 74, 2046–2051 (2000)) and the Platinum Quantitative RT-PCR Thermoscript One-Step kit (Invitrogen cat # 11731-015). Briefly, RNA made to a volume of 5 μl (<1 ng) was added to a 20 μl Ready-Mix containing the following: 1.25× Thermoscript reaction mix (containing Magnesium Sulfate and 2-deoxynucleoside 5′-triphosphates (dNTPs)), 3 mM dNTPs, 200 nM forward primer (sequence: 5′-[…]-3′), 600 nM reverse primer (5′-[…]-3′), 100 nM probe (5′-6-FAM-[…]-BHQ-1-3′)(FAM: Fluorescein-aminohexyl amidite; BHQ: Black Hole Quencher), 1 μM Rbx reference dye (Invitrogen cat # 12223-012) and Thermoscript Plus Platinum Taq polymerase mixture. All primers were designed with ABI Prism 7700 software and obtained from Biosearch Technologies, Novato, Calif. Samples containing known concentrations of HCV RNA transcript were run as standards. Using the following cycling protocol (50° C., 30 min; 95° C., 5 min; 40 cycles of 95° C., 15 sec, 60° C., 1 min), HCV RNA expression was quantitated as described in the Perkin Elmer manual using the ABI Prism 7700 Sequence Detector.
The luciferase reporter assay was also used to confirm compound potency in the replicon. Utilization of a replicon luciferase reporter assay was first described by Krieger et al (Krieger N, Lohmann V, and Bartenschlager R, J. Virol. 75(10):4614–4624 (2001)). […]

[3] = HCV NS3/4A protease enzyme assay, read-out: IC50 range

C=CC1C[C@]1(NC(=O)[C@@H]1C[C@@H](OC(=O)Nc2ccccc2/C(=N/O)c2ccccc2)CN1C(=O)[C@@H](NC(=O)OC(C)(C)C)C(C)(C)C)C(=O)NS(=O)(=O)C1CC1 (single isomer, unassigned) [Compound 77a]
IC50 [1, 3]: 100 to 1000 nM | EC50 [2]: 1000 to 10000 nM

C=CC1C[C@]1(NC(=O)[C@@H]1C[C@@H](OC(=O)Nc2ccccc2/C(=N/O)c2ccccc2)CN1C(=O)[C@@H](NC(=O)OC(C)(C)C)C(C)(C)C)C(=O)NS(=O)(=O)C1CC1 (single isomer, unassigned) [Compound 77b]
IC50 [1, 3]: 100 to 1000 nM | EC50 [2]: > 10000 nM

C=CC1C[C@]1(NC(=O)[C@@H]1C[C@@H](OC(=O)N(C)c2ccccc2)CN1C(=O)[C@@H](NC(=O)OC(C)(C)C)C(C)(C)C)C(=O)NS(=O)(=O)C1CC1 (stereo partly drawn) [Compound 1, BocNH-P3(t-BuGly)-P2(Hyp(O—CO(N-methyl,N-phenyl)))-P1(1R,2S VinylAcca)—CONHSO2Cyclopropane]
IC50 [1, 3]: 100 to 1000 nM | EC50 ([2]; Hepatitis C virus, Huh-7, 96 h): 1000 to 10000 nM

C=CC1C[C@]1(NC(=O)[C@@H]1C[C@@H](OC(=O)NCc2ccccc2C)CN1C(=O)[C@@H](NC(=O)OC(C)(C)C)C(C)(C)C)C(=O)NS(=O)(=O)C1CC1 (stereo partly drawn) [Compound 2, BocNH-P3(t-BuGly)-P2(Hyp(O—CO(NH—(2-methylbenzyl))))-P1(1R,2S VinylAcca)—CONHSO2Cyclopropane]
IC50 [1, 3]: 100 to 1000 nM | EC50 ([2]; Hepatitis C virus, Huh-7, 96 h): 1000 to 10000 nM

C=CC1C[C@]1(NC(=O)[C@@H]1C[C@@H](OC(=O)N[C@@H]2C[C@H]2c2ccccc2)CN1C(=O)[C@@H](NC(=O)OC(C)(C)C)C(C)(C)C)C(=O)NS(=O)(=O)C1CC1 (stereo partly drawn) [Compound 3, BocNH-P3(t-BuGly)-P(Hyp(O—CO(NH-2(trans)-phenylcyclopropyl)))-P1(1R,2S VinylAcca)—CONHSO2Cyclopropane]
IC50 [1, 3]: < 100 nM | EC50 ([2]; Hepatitis C virus, Huh-7, 96 h): 1000 to 10000 nM

C=CC1C[C@]1(NC(=O)[C@@H]1C[C@@H](OC(=O)N2CCOCC2)CN1C(=O)[C@@H](NC(=O)OC(C)(C)C)C(C)(C)C)C(=O)NS(=O)(=O)C1CC1 (stereo partly drawn) [Compound 4, BocNH-P3(t-BuGly)-P2(Hyp(O—CO—(4-morpholino)))-P1(1R,2S VinylAcca)—CONHSO2Cyclopropane]
IC50 [1, 3]: 100 to 1000 nM | EC50 ([2]; Hepatitis C virus, Huh-7, 96 h): > 10000 nM

C=CCN(CC=C)C(=O)O[C@@H]1C[C@@H](C(=O)N[C@]2(C(=O)NS(=O)(=O)C3CC3)CC2C=C)N(C(=O)[C@@H](NC(=O)OC(C)(C)C)C(C)(C)C)C1 (stereo partly drawn) [Compound 5, BocNH-P3(t-BuGly)-P2(Hyp(O—CO(N,N-diallyl)))-P1(1R,2S VinylAcca)—CONHSO2Cyclopropane]
IC50 [1, 3]: 100 to 1000 nM | EC50 ([2]; Hepatitis C virus, Huh-7, 96 h): 1000 to 10000 nM

C=CC1C[C@]1(NC(=O)[C@@H]1C[C@@H](OC(=O)NC2CCCCC2)CN1C(=O)[C@@H](NC(=O)OC(C)(C)C)C(C)(C)C)C(=O)NS(=O)(=O)C1CC1 (stereo partly drawn) [Compound 6, BocNH-P3(t-BuGly)-P2(Hyp(O—CO(NH-cyclohexyl)))-P1(1R,2S VinylAcca)—CONHSO2Cyclopropane]
IC50 [1, 3]: < 100 nM | EC50 ([2]; Hepatitis C virus, Huh-7, 96 h): 1000 to 10000 nM

C=CC1C[C@]1(NC(=O)[C@@H]1C[C@@H](OC(=O)NCCc2ccccc2)CN1C(=O)[C@@H](NC(=O)OC(C)(C)C)C(C)(C)C)C(=O)NS(=O)(=O)C1CC1 (stereo partly drawn) [Compound 7, BocNH-P3(t-BuGly)-P2(Hyp(O—CO(NH-phenethyl)))-P1(1R,2S VinylAcca)—CONHSO2Cyclopropane]
IC50 ([1]; read-out: IC50 range, HCV NS3/4A protease enzyme assay): 100 to 1000 nM | EC50 ([2]; Hepatitis C virus, Huh-7, 96 h): 1000 to 10000 nM

C=CC1C[C@]1(NC(=O)[C@@H]1C[C@@H](OC(=O)Nc2cc(Cl)ccc2OC)CN1C(=O)[C@@H](NC(=O)OC(C)(C)C)C(C)(C)C)C(=O)NS(=O)(=O)C1CC1 (stereo partly drawn) [Compound 9, BocNH-P3(t-BuGly)-P2(Hyp(O—CO(NH—(5-chloro-2-methoxy-phenyl))))-P1(1R,2S VinylAcca)—CONHSO2Cyclopropane]
IC50 [1, 3]: < 100 nM | EC50 ([2]; Hepatitis C virus, Huh-7, 96 h): 100 to 1000 nM

C=CC1C[C@]1(NC(=O)[C@@H]1C[C@@H](OC(=O)Nc2ccc3c(c2)OCO3)CN1C(=O)[C@@H](NC(=O)OC(C)(C)C)C(C)(C)C)C(=O)NS(=O)(=O)C1CC1 (stereo partly drawn) [Compound 10, BocNH-P3(t-BuGly)-P2(Hyp(O—CO(NH-Benzo[1,3]dioxol-5-yl)))-P1(1R,2S VinylAcca)—CONHSO2Cyclopropane]
IC50 [1, 3]: 100 to 1000 nM | EC50 ([2]; Hepatitis C virus, Huh-7, 96 h): > 10000 nM
